Data on 14 molecules can be found in patent US8629168B2, “Benzoxazoles and oxazolopyridines being useful as janus kinases inhibitors” (priority 2006, dated 2014).

The structures appear in SMILES notation. pIC50: −log10 of the molar value.

The assay addresses T1, GST-JAK2(808-1132) (Homo sapiens, UniProt O60674).
T1 construct: GST-JAK2(808-1132) is purchased from Invitrogen; purchased Invitrogen (Carlsbad, USA) #4288
The assay is described as follows: EPK JAK/TYK-kinase family profiling assay (Caliper mobility shift), JAK2. The format is biochemical. As to conditions: Caliper mobility shift assay of Example 187, 20 μM ATP, read-out: IC50 with Test in present Example. An outline of the steps:
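Caliper mobility-shift assay with the GST-tagged kinase domain and a fluorescently labeled peptide substrate plus ATP, run 60 min at 30° C and then stopped with EDTA buffer. Turnover was taken as the substrate/product ratio. Compounds were tested at eight final concentrations from 10 to 0.003 μM.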

Broadly, the pIC50 is the negative decadic logarithm of the IC50, by convention in mol/L.

T1 sequence (O60674 808-1132): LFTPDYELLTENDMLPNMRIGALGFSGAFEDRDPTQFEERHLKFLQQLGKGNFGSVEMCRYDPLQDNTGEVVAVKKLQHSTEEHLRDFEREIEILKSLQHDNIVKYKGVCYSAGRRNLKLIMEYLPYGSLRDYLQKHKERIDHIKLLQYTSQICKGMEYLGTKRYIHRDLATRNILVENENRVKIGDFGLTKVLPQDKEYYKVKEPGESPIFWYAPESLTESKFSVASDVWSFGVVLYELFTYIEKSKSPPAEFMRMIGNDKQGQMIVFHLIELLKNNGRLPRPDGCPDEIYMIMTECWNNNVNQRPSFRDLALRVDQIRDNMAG

Consider `Cc1cc(Nc2nc3ccnc(-c4cc(F)c(CN5CCS(=O)(=O)CC5)c(F)c4)c3o2)ccc1C(=O)N(C)C` [Example 168, 4-{4-[4-(1,1-Dioxo-1lambda*6*-thiomorpholin-4-ylmethyl)-3,5-difluoro-phenyl]-oxazolo[5,4-c]pyridin-2-ylamino}-2,N,N-trimethyl-benzamide], for which the pIC50 was 6.89.

Consider `CC(=O)NC1Cc2ccc(Nc3nc4cccc(-c5ccc(CN6CCS(=O)(=O)CC6)cc5)c4o3)cc2C1` (centres unmarked) [Example 133, N-(5-{7-[4-(1,1-Dioxo-1lambda*6*-thiomorpholin-4-ylmethyl)-phenyl]-benzooxazol-2-ylamino}-indan-2-yl)-acetamide], for which the pIC50 was 7.85.

In the case of `CCN(CC)C(=O)c1ccc(Nc2nc3cccc(-c4ccc(CC(=O)N5CCS(=O)(=O)CC5)cc4)c3o2)cc1OC` [Example 123, 4-(7-{4-[2-(1,1-Dioxo-1lambda*6*-thiomorpholin-4-yl)-2-oxo-ethyl]-phenyl}-benzooxazol-2-ylamino)-N,N-diethyl-2-methoxy-benzamide], the pIC50 is 8.27.

Take `COCCN1CCN(c2ccc(Nc3nc4cccc(-c5cc(F)c(CN6CCS(=O)(=O)CC6)c(F)c5)c4o3)cc2C)CC1` [Example 108, {7-[4-(1,1-Dioxo-1lambda*6*-thiomorpholin-4-ylmethyl)-3,5-difluoro-phenyl]-benzooxazol-2-yl}-{4-[4-(2-methoxy-ethyl)-piperazin-1-yl]-3-methyl-phenyl}-amine]: the pIC50 was 7.99.

On to `COc1cc(Nc2nc3cccc(-c4ccc(C(=O)N5CCOCC5)cc4)c3o2)ccc1C(=O)N(C)C` [Example 150, 2-Methoxy-N,N-dimethyl-4-{7-[4-(morpholine-4-carbonyl)-phenyl]-benzooxazol-2-ylamino}-benzamide], for which the pIC50 was 7.60.

In the case of `CN1CCN(c2ccc(Nc3nc4cccc(-c5ccc(C(=O)N6CCOCC6)c(F)c5)c4o3)cc2)CC1` [Example 75, (2-Fluoro-4-{2-[4-(4-methyl-piperazin-1-yl)-phenylamino]-benzooxazol-7-yl}-phenyl)-morpholin-4-yl-methanone], the pIC50 is 8.19.

`Cc1cc(Nc2nc3cccc(-c4ccc(CN5CCS(=O)(=O)CC5)c(F)c4)c3o2)ccc1C(=O)N(C)C` [Example 84, 4-{7-[4-(1,1-Dioxo-1lambda*6*-thiomorpholin-4-ylmethyl)-3-fluoro-phenyl]-benzooxazol-2-ylamino}-2,N,N-trimethyl-benzamide]: the pIC50 is > 8.52.

In the case of `Cc1cc(Nc2nc3cccc(-c4ccc(C(=O)N5CCOCC5)c(F)c4)c3o2)ccc1C(=O)N(C)C` [Example 78, 4-{7-[3-Fluoro-4-(morpholine-4-carbonyl)-phenyl]-benzooxazol-2-ylamino}-2, N,N-trimethyl-benzamide], the pIC50 is 8.35.

Regarding `Cc1cc(Nc2nc3cccc(-c4cc(F)c(CN5CCOCC5)c(F)c4)c3o2)ccc1C(=O)N(C)C` [Example 68, 4-[7-(3,5-Difluoro-4-morpholin-4-ylmethyl-phenyl)-benzooxazol-2-ylamino]-2,N,N-trimethyl-benzamide], the pIC50 was 7.72.

In the case of `CCN1CCN(c2ccc(Nc3nc4cccc(-c5cc(F)c(CN6CCOCC6)c(F)c5)c4o3)cc2C)CC1` [Example 98, [7-(3,5-Difluoro-4-morpholin-4-ylmethyl-phenyl)-benzooxazol-2-yl]-[4-(4-ethyl-piperazin-1-yl)-3-methyl-phenyl]-amine], the negative logarithm of the IC50 (pIC50) was 8.28.

As to `CN(C)C(=O)c1ccc(Nc2nc3cccc(-c4ccc(CS(C)(=O)=O)cc4)c3o2)cc1` [Example 71, 4-[7-(4-Methanesulfonylmethyl-phenyl)-benzooxazol-2-ylamino]-N,N-dimethyl-benzamide], the negative logarithm of the IC50 (pIC50) is 7.82.

With `CS(=O)(=O)c1ccc(Nc2nc3cccc(-c4ccc(CC(=O)N5CCOCC5)cc4)c3o2)cc1` [Example 124, 2-{4-[2-(4-Methanesulfonyl-phenylamino)-benzooxazol-7-yl]-phenyl}-1-morpholin-4-yl-ethanone], the pIC50 is 8.28.

For `O=C1CCCN1c1ccc(Nc2nc3cccc(-c4cc(F)c(CN5CCOCC5)c(F)c4)c3o2)cc1` [Example 126, 1-{4-[7-(3,5-Difluoro-4-morpholin-4-ylmethyl-phenyl)-benzooxazol-2-ylamino]-phenyl}-pyrrolidin-2-one], the negative-log IC50 (pIC50) is 6.78.

`CNS(=O)(=O)c1ccc(-c2cccc3nc(Nc4ccc(C)c(OC)c4)oc23)cc1` [Example 144, 4-[2-(3-Methoxy-4-methyl-phenylamino)-benzooxazol-7-yl]-methyl-benzenesulfonamide]: the pIC50 is 6.14.
